Among the test systems are A549 NSCLC; ACHN renal; SN12C renal; HOP-92 NSCLC; K-562 leukemia; SF-539 CNS; CCRF-CEM leukemia; NCI-H522 lung; KM12 colon; SK-MEL-5 melanoma.
Common to all, as to test: NCI anticancer screen, dose series, 48 h

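Interpolation was linear, between the two tested concentrations surrounding the appropriate level; five concentrations were tested over 48 hours in 96-well plates. The concentration for 50% growth inhibition is given as GI50. TGI: concentration producing complete growth inhibition.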 A value given as a limit tells only on which side of the number the result lay.

On to `C[C@@H]1Cc2c(ccc3[nH]ncc23)[C@@H](c2ccc(NC3CN(CCCF)C3)cn2)N1CC(F)(F)F`, for which the GI50 with A549 NSCLC was 30.8 µM; with ACHN renal it was 22.2 µM; in the assay on SN12C renal, 24 µM; in the assay on HOP-92 NSCLC it was 3.1 µM; with K-562 leukemia it was 19.4 µM; in the assay with SF-539 CNS, 16.9 µM. Besides, the GI50 in the assay on CCRF-CEM leukemia is 21.1 µM; in the assay on NCI-H522 lung, 20.2 µM; in the assay with KM12 colon, 31.3 µM; with SK-MEL-5 melanoma, 14.3 µM. For the same compound, the TGI in the assay with A549 NSCLC is over 100 µM; in the assay with ACHN renal it was 53 µM; in the assay on SN12C renal, 79 µM; in the assay on HOP-92 NSCLC it was 20.1 µM; with K-562 leukemia, 54.9 µM; in the assay on SF-539 CNS, 32.5 µM. For the same compound, the TGI in the assay on CCRF-CEM leukemia was 67.3 µM; in the assay on NCI-H522 lung, 45.7 µM; in the assay with KM12 colon, over 100 µM; in the assay on SK-MEL-5 melanoma, 28.2 µM.

Consider `Cc1nc(-n2nc(-c3ccccc3)cc2-c2ccccc2)sc1C(=O)/C=C/c1cccc([N+](=O)[O-])c1`, for which the TGI is 55.6 µM with A549 NSCLC; over 100 µM with ACHN renal; 73.4 µM in the assay with SN12C renal; 51.1 µM with HOP-92 NSCLC; 28.3 µM with K-562 leukemia; 22.8 µM with SF-539 CNS. Besides, the TGI with CCRF-CEM leukemia is 44.4 µM; in the assay with NCI-H522 lung, 30.8 µM; in the assay with KM12 colon, 11.4 µM; with SK-MEL-5 melanoma, 26.7 µM.

For `CCOC(=O)C(=O)Nc1nc2ccc(C)cc2s1`, the TGI with A549 NSCLC, in the assay with ACHN renal, in the assay with SN12C renal, with HOP-92 NSCLC, in the assay on K-562 leukemia and in the assay on SF-539 CNS was over 100 µM throughout. Also, the TGI in the assay on CCRF-CEM leukemia, in the assay on NCI-H522 lung, in the assay with KM12 colon and in the assay on SK-MEL-5 melanoma was over 100 µM each time.

In the case of `CN(C)Cc1cc(C(C)(C)C)cc(CN(C)C)c1O`, the TGI in the assay with A549 NSCLC, in the assay with ACHN renal, in the assay with SN12C renal, with HOP-92 NSCLC, in the assay on K-562 leukemia and in the assay on SF-539 CNS was over 100 µM each time. For the same compound, the TGI in the assay on CCRF-CEM leukemia, with NCI-H522 lung, in the assay with KM12 colon and with SK-MEL-5 melanoma was over 100 µM in each case.

`O=C(CCc1cc(-c2ccc(F)cc2)n[nH]1)N(Cc1ccccc1)Cc1ccccc1`: the TGI in the assay on A549 NSCLC, in the assay on ACHN renal, with SN12C renal, in the assay on HOP-92 NSCLC, in the assay on K-562 leukemia and with SF-539 CNS was over 100 µM throughout. Also, the TGI in the assay with CCRF-CEM leukemia, in the assay with NCI-H522 lung, with KM12 colon and in the assay with SK-MEL-5 melanoma was over 100 µM in each case.

With `COc1ccc(F)cc1-c1ccnc2[nH]c(C3=CCN(C4CCC(CC(=O)O)CC4)CC3)cc12` (configuration not stated), the GI50 is 0.424 µM with A549 NSCLC; 0.243 µM in the assay on ACHN renal; 0.146 µM with SN12C renal; 0.0568 µM in the assay with HOP-92 NSCLC; 0.316 µM in the assay on K-562 leukemia; 0.0546 µM with SF-539 CNS. Further, the GI50 in the assay with CCRF-CEM leukemia is 0.13 µM; in the assay on NCI-H522 lung it was 0.159 µM; with KM12 colon, 0.0953 µM; in the assay with SK-MEL-5 melanoma, 0.121 µM. Moreover, the TGI in the assay with A549 NSCLC was over 100 µM; in the assay on ACHN renal, over 100 µM; in the assay with SN12C renal, 35.5 µM; in the assay on HOP-92 NSCLC it was 0.666 µM; in the assay on K-562 leukemia, over 100 µM; with SF-539 CNS, 0.335 µM. Further, the TGI is over 100 µM in the assay with CCRF-CEM leukemia, 0.714 µM with NCI-H522 lung, over 100 µM with KM12 colon and 0.389 µM in the assay with SK-MEL-5 melanoma.

Take `C/C(=N\Nc1n[nH]c(=S)n1N)c1c(O)cc(C)oc1=O`: the TGI in the assay on A549 NSCLC, in the assay on ACHN renal, in the assay with SN12C renal, in the assay on HOP-92 NSCLC, in the assay on K-562 leukemia and with SF-539 CNS was over 100 µM each time. Further, the TGI in the assay with CCRF-CEM leukemia, in the assay with NCI-H522 lung and in the assay with KM12 colon was over 100 µM in each case.

In the case of `COc1ccc2c(c1)C=CC1C2CC[C@]2(C)C(NC(=O)/C=C/c3ccc(O)c(O)c3)CCC12` (some centres not stated), the GI50 was 11.4 µM with A549 NSCLC; 7.5 µM in the assay on ACHN renal; 13.6 µM in the assay on SN12C renal; 10.6 µM with HOP-92 NSCLC; 13.9 µM with K-562 leukemia; 18.6 µM with SF-539 CNS. Further, the results for the GI50 in the assay on CCRF-CEM leukemia, in the assay on NCI-H522 lung and with SK-MEL-5 melanoma were 4.36 µM, 3.41 µM and 14.9 µM, respectively. The TGI came to 29.5 µM with A549 NSCLC; 19.8 µM in the assay with ACHN renal; 32.2 µM in the assay on SN12C renal; 26.5 µM with HOP-92 NSCLC; 49.6 µM in the assay on K-562 leukemia; 43.5 µM in the assay with SF-539 CNS. In addition, the TGI with CCRF-CEM leukemia is 19.5 µM; with NCI-H522 lung, 10.9 µM; in the assay with SK-MEL-5 melanoma, 40.1 µM.

The values are drawn from PubChem BioAssay (NCI).
